Assay results reported in US4178449A, “Pyrazolo[1,5-a]pyrimidines and imidazo-[1,5-a]pyrimidines” (American Cyanamid Company, priority 1978, dated 1979).

Legend:
[1] = system: pentylenetetrazole clonic seizures in rats; assay: protection from convulsions resulting from the administration of pentylenetetrazole; type: in vivo, rat; design: key: Active: The test compounds are considered active if they protect 50% or more of the rats from clonic seizures; details: oral or intraperitoneal, single or graded doses, pentylenetetrazole 21 to 23 mg./kg. i.v. at 30 or 60 minutes
Protocol: The anti-anxiety properties of the novel compounds of the present invention have been established in a test which indicates anxiolytic activity by the measure of protection from convulsions resulting from the administration of pentylenetetrazole. Single or graded dose levels of the test compounds were administered orally or intraperitoneally in a 2% starch vehicle, to groups of at least 4 rats. At 30 or 60 minutes, the rats were treated intravenously with pentylenetetrazole at a dose of 21 to 23 mg./kg. of body weight. This dose is estimated to cause clonic seizures in 99% of unprotected rats. The test compounds are considered active if they protect 50% or more of the rats from clonic seizures. It has been reported [R. T. Hill and D. H. Tedeschi, "Animal Testing and Screening Procedures in Evaluating Psychotropic Drugs" in "An Introduction to Psychopharmacology", Eds. R. R. Rech and K. E. Moore, Raven Press, New York, pp. 237-288 (1971)] that there is a high degree of correlation between antagonism of pentylenetetrazole seizures in rats and anti-anxietyeffects in higher warm-blooded animals.

[2] = system: 3H-diazepam binding to the brain receptors (rat frontal cortex P2-synaptosomal fraction); assay: inhibition of 3H-diazepam binding to brain receptors; design: key: Active: A compound which exhibits the ability to inhibit binding by ≥20% is considered to be active; details: 3H-diazepam (1.5 mM.), 20 minutes in ice
Text: Another test used to measure anxiolytic activity comprises measurement of the ability of test compounds to inhibit the binding of ^3 H-diazepam to the brain receptors of warm-blooded animals. The test is described by R. F. Squires in Nature, 266, No. 21 page 732 (April 1977) and H. Mohler and T. Okada, Science, 198, 849 (1977). A modification of this test was employed wherein the animals used were male albino rats of the Wistar strain, weighing 150-200 g. each from Royalhart Farms. Diazepam (methyl-^3 H) was obtained from New England Nuclear. The test compounds were solubilized in either dimethylformamide, acetic acid, ethanol or hydrochloric acid. Frontal cortex of rats was homogenized gently in 20 volumes of ice-cold 0.32 M. sucrose, centrifuged twice at 1000 g. for 10 minutes and then recentrifuged at 30,000 g. for 20 minutes to produce a crude P2 -synaptosomal fraction. The P2 -fraction was resuspended, twice the original volume, in hypotonic 50 mM. Tris.HCl (pH 7.4). The binding assay consisted of 300 μl. of the P2 -fraction suspension (0.350 mg.), 100 μl. of test drug and 100 μl. of ^3 H-diazepam ([…].),. which was added to 1.5 ml. of 50 mM. Tris.HCl (pH 7.4). Non-specific binding controls and total binding controls received 100 μl. of diazepam (3 μm.) and 100 μl. of deionized water, respectively, in place of the test compound. Incubation for 20 minutes proceeded in ice and was terminated by filtration, under vacuum, through Whatman GF/C glass fiber filters. The filters were washed twice with 5 ml. of ice-cold 50 mM. Tris.HCl (pH 7.4) and placed in scintillation vials. After drying at 50°-60° C. for 30 minutes, 10 ml. of Beckman Ready-Solve HP was added and the radioactivity determined in a Beckman Scintillation Counter. The percentage of inhibition of diazepam binding is calculated for each compound. […] Representative compounds of the present invention which were active when tested by the diazepam binding assay are set forth in Table III below.

[3] = system: conflict situation (shocks taken) in Wistar strain rats; assay: non-conditioned passive avoidance (conflict) procedure; type: in vivo, rat; design: key: Active: The test compounds are considered active if the shocks received by the test group are significantly different from the control group by the Mann-Whitney U test; details: oral or intraperitoneal, single or graded doses, tested at 30 or 60 minutes, 5 minute interval
Protocol: Another test which has been used to assess anti-anxiety effect is a non-conditioned passive avoidance procedure described by J. R. Vogel, B. Beer and D. E. Clody, "A Simple and Reliable Conflict Procedure for Testing Anti-Anxiety Agents", Psychopharmacologia, 21, 1-7 (1971). A conflict situation is induced in rats by a modification of this method. Groups of 6 naive, Wistar strain rats, weighing 200-240 g. each were deprived of water for 48 hours and food for 24 hours. The test compounds were administered in single or graded, oral or intraperitoneal doses suspended in a 2% starch vehicle containing 0.5% v/v polyethylene glycol and one drop of Polysorbate 80. Control animals received the vehicle alone. At 30 or 60 minutes each rat was placed in individual black plexiglass chambers. A 10% dextrose solution was available ad libitum from a tap located in the rear of the chamber. A 0.3 milliampere constant current 60 Hz pulsed DC shocking current was established between the stainless steel grid floor and the tap. After 20 seconds of non-shocked drinking, an alternating 5 second "shock-on" and 5 second "shock-off" cycle began and continued for a total of 5 minutes. The number of shocks taken by each rat during the 5 minute interval was recorded and compared to a control group. […]

Structure (SMILES): ON=Cc1cnn2c(-c3cccc(C(F)(F)F)c3)ccnc12 [Example 49, 7-(α,α,α-Trifluoro-m-tolyl)pyrazolo[1,5-a]pyrimidine-3-carboxaldehyde, oxime]
- Result (protection from pentylenetetrazole clonic seizures) [1]: Active

Structure (SMILES): COc1cccc(-c2ccnc3c(C#N)cnn23)c1 [Example 27, 7-(m-Methoxyphenyl)pyrazolo[1,5-a]pyrimidine-3-carbonitrile]
- Result (protection from pentylenetetrazole clonic seizures) [1]: Active
- Result (inhibition of 3H-diazepam binding) [2]: Active

Structure (SMILES): N#Cc1ncn2c(-c3cccc(C(F)(F)F)c3)ccnc12 [Example 29, 4-(α,α,α-Trifluoro-m-tolyl)imidazo[1,5-a]pyrimidine-8-carbonitrile]
- Result (protection from pentylenetetrazole clonic seizures) [1]: Active
- Result (number of shocks taken vs control, conflict procedure) [3]: Active
- Result (inhibition of 3H-diazepam binding) [2]: Active

Structure (SMILES): c1ccc(-c2ccnc3ccnn23)cc1 [Example 1, 7-Phenylpyrazolo[1,5-a]pyrimidine]
- Result (number of shocks taken vs control, conflict procedure) [3]: Active
- Result (inhibition of 3H-diazepam binding) [2]: Active

Structure (SMILES): N#Cc1cnn2c(-c3cccc(F)c3)ccnc12 [Example 76, 7-(m-Fluorophenyl)pyrazolo[1,5-a]pyrimidine-3-carbonitrile]
- Result (protection from pentylenetetrazole clonic seizures) [1]: Active

Structure (SMILES): CC(=O)c1cnn2c(-c3cccc(C(F)(F)F)c3)ccnc12 [Example 54, Methyl 7-(α,α,α-trifluoro-m-tolyl)pyrazolo[1,5-a]pyrimid-3-yl ketone]
- Result (protection from pentylenetetrazole clonic seizures) [1]: Active

Structure (SMILES): O=Cc1cnn2c(-c3cccc(C(F)(F)F)c3)ccnc12 [Example 48, 7-(α,α,α-Trifluoro-m-tolyl)pyrazolo[1,5-a]pyrimidine-3-carboxaldehyde]
- Result (protection from pentylenetetrazole clonic seizures) [1]: Active

Structure (SMILES): FC(F)(F)c1cccc(-c2ccnc3c(Br)cnn23)c1 [Example 15, 3-Bromo-7-(α,α,α-trifluoro-m-tolyl)pyrazolo[1,5-a]pyrimidine]
- Result (protection from pentylenetetrazole clonic seizures) [1]: Active
- Result (inhibition of 3H-diazepam binding) [2]: Active

Structure (SMILES): FC(F)(F)c1cccc(-c2ccn3nccc3n2)c1 [Example 66, 5-(α,α,α-Trifluoro-m-tolyl)pyrazolo[1,5-a]pyrimidine]
- Result (protection from pentylenetetrazole clonic seizures) [1]: Active

Structure (SMILES): Cc1cnc2ccnn2c1-c1cccc(C(F)(F)F)c1 [Example 24, 6-Methyl-7-(α,α,α-trifluoro-m-tolyl)pyrazolo[1,5-a]pyrimidine]
- Result (number of shocks taken vs control, conflict procedure) [3]: Active
- Result (inhibition of 3H-diazepam binding) [2]: Active

Structure (SMILES): Cc1nn2c(-c3cccc(C(F)(F)F)c3)ccnc2c1C#N [Example 11, 2-Methyl-7-(α,α,α-trifluoro-m-tolyl)pyrazolo[1,5-a]pyrimidine-3-carbonitrile]
- Result (protection from pentylenetetrazole clonic seizures) [1]: Active
- Result (number of shocks taken vs control, conflict procedure) [3]: Active
- Result (inhibition of 3H-diazepam binding) [2]: Active

Structure (SMILES): FC(F)(F)c1cccc(-c2ccnc3ccnn23)c1 [Example 12, 7-(α,α,α-Trifluoro-m-tolyl)pyrazolo[1,5-a]pyrimidine]
- Result (protection from pentylenetetrazole clonic seizures) [1]: Active
- Result (inhibition of 3H-diazepam binding) [2]: Active

Structure (SMILES): CCOC(=O)c1cnn2c(-c3cccc(C)c3)ccnc12 [Example 77, Ethyl 7-(m-tolyl)pyrazolo[1,5-a]pyrimidine-3-carboxylate]
- Result (protection from pentylenetetrazole clonic seizures) [1]: Active

Structure (SMILES): CN(C)CCOC(=O)c1cnn2c(-c3cccc(C(F)(F)F)c3)ccnc12 [Example 79, 2-Dimethylaminoethyl 7-(α,α,α-trifluoro-m-tolyl)pyrazolo[1,5-a]-pyrimidine-3-carboxylate]
- Result (protection from pentylenetetrazole clonic seizures) [1]: Active

Structure (SMILES): FC(F)(F)c1cccc(-c2ccnc3c(Cl)cnn23)c1 [Example 14, 3-Chloro-7-(α,α,α-trifluoro-m-tolyl)pyrazolo[1,5-a]pyrimidine]
- Result (protection from pentylenetetrazole clonic seizures) [1]: Active
- Result (inhibition of 3H-diazepam binding) [2]: Active

Structure (SMILES): N#Cc1c(C(N)=O)nn2c(-c3cccc(C(F)(F)F)c3)ccnc12 [Example 19, 3-Cyano-7-(α,α,α-trifluoro-m-tolyl)pyrazolo[1,5-a]pyrimidine-2-carboxamide]
- Result (protection from pentylenetetrazole clonic seizures) [1]: Active
- Result (inhibition of 3H-diazepam binding) [2]: Active

Structure (SMILES): CCOC(=O)c1cnn2c(-c3ccc(C)c(C)c3)ccnc12 [Example 63, Ethyl 7-(3,4-xylyl)pyrazolo[1,5-a]pyrimidine-3-carboxylate]
- Result (protection from pentylenetetrazole clonic seizures) [1]: Active

Structure (SMILES): CCOC(=O)c1cnn2c(-c3ccc(CC)cc3)ccnc12 [Example 61, Ethyl 7-(p-ethylphenyl)pyrazolo[1,5-a]pyrimidine-3-carboxylate]
- Result (protection from pentylenetetrazole clonic seizures) [1]: Active

Structure (SMILES): Cc1cnc2c(Cl)cnn2c1-c1cccc(C(F)(F)F)c1 [Example 25, 3-Chloro-6-methyl-7-(α,α,α-trifluoro-m-tolyl)pyrazolo[1,5-a]pyrimidine]
- Result (number of shocks taken vs control, conflict procedure) [3]: Active
- Result (inhibition of 3H-diazepam binding) [2]: Active

Structure (SMILES): CCOC(=O)c1cnn2c(-c3cccc(C(F)(F)F)c3)ccnc12 [Example 16, 7-(α,α,α-Trifluoro-m-tolyl)pyrazolo[1,5-a]pyrimidine-3-carboxylic acid ethyl ester]
- Result (protection from pentylenetetrazole clonic seizures) [1]: Active
- Result (number of shocks taken vs control, conflict procedure) [3]: Active
- Result (inhibition of 3H-diazepam binding) [2]: Active

Structure (SMILES): CCOC(=O)c1cnn2c(-c3ccc(OC)c(OC)c3)ccnc12 [Example 59, Ethyl 7-(3,4-dimethoxyphenyl)pyrazolo[1,5-a]pyrimidine-3-carboxylate]
- Result (protection from pentylenetetrazole clonic seizures) [1]: Active

Structure (SMILES): CCOC(=O)c1ncn2c(-c3cccc(C(F)(F)F)c3)ccnc12 [Example 56, Ethyl 4-(α,α,α-trifluoro-m-tolyl)imidazolo[1,5-a]pyrimidine-8-carboxylate]
- Result (protection from pentylenetetrazole clonic seizures) [1]: Active

Structure (SMILES): N#Cc1cnn2c(-c3ccccc3C(F)(F)F)ccnc12 [Example 21, 7-(α,α,α-Trifluoro-o-tolyl)pyrazolo[1,5-a]pyrimidine-3-carbonitrile]
- Result (number of shocks taken vs control, conflict procedure) [3]: Active

Structure (SMILES): c1ccc(-c2ccn3nccc3n2)cc1 [Example 67, 5-Phenylpyrazolo[1,5-a]pyrimidine]
- Result (protection from pentylenetetrazole clonic seizures) [1]: Active

Structure (SMILES): N#Cc1cnn2c(-c3cccc(C(F)(F)F)c3)ccnc12 [Example 3, 7-(α,α,α-Trifluoro-m-tolyl)pyrazolo[1,5-a]pyrimidine-3-carbonitrile]
- Result (protection from pentylenetetrazole clonic seizures) [1]: Active
- Result (number of shocks taken vs control, conflict procedure) [3]: Active
- Result (inhibition of 3H-diazepam binding) [2]: Active

Structure (SMILES): Cc1cnc2c(C#N)cnn2c1-c1cccc(C(F)(F)F)c1 [Example 23, 6-Methyl-7-(α,α,α-trifluoro-m-tolyl)pyrazolo-[1,5-a]pyrimidine-3-carbonitrile]
- Result (protection from pentylenetetrazole clonic seizures) [1]: Active
- Result (inhibition of 3H-diazepam binding) [2]: Active

Structure (SMILES): COCc1cnn2c(-c3cccc(C(F)(F)F)c3)ccnc12 [Example 80, 3-(Methoxymethyl)-7-(α,α,α-trifluoro-m-tolyl)pyrazolo[1,5-a]-pyrimidine]
- Result (protection from pentylenetetrazole clonic seizures) [1]: Active
